In paper PMC6835155, “Lessons from LIMK1 enzymology and their impact on inhibitor design” (Biochemical Journal, 2019):
Read-outs that look alike come from different tables or passages of the source.

Experiments:
[1] = target: T1, LIMK2KD (Homo sapiens, UniProt P53671); assay: Differential (dynamic) scanning fluorimetry (DSF) assay, LIMK2KD; assay type: binding; details: for ΔTm at 10 µM: read-out: TM Shift LIMK2 (K)
T1 construct: The cDNA coding for LIMK2 residues 330 to 632 was PCR amplified; His6 (N, cleaved yes); made in house; host or cells: baculovirus; Sf9 for virus, TriEx insect cells for expression

[2] = target: T2, LIMK1KD (Homo sapiens, UniProt P53667); assay: Differential (dynamic) scanning fluorimetry (DSF) assay, LIMK1KD; assay type: binding; details: for ΔTm at 10 µM: read-out: TM Shift LIMK1 (K)
T2 construct: His6 (N, cleaved yes); made in house; host or cells: baculovirus; Sf9 for virus, TriEx insect cells for expression

[3] = LIMK2KD, compound 10 µM, single shot
[4] = 2 µM LIMK1KD, compound 10 µM, single shot
[5] = LIMK2KD, compound 10 µM, single shot, 10 µM

T1 sequence (P53671 330-632): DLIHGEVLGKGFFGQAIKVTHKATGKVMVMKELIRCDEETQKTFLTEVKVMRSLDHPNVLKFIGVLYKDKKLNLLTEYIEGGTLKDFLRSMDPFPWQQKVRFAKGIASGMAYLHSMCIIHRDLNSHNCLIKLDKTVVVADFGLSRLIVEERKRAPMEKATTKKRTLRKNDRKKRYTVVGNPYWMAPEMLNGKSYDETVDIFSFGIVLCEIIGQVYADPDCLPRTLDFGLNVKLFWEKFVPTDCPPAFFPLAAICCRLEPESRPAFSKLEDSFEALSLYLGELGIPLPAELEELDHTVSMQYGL
T2 sequence (P53667 330-637): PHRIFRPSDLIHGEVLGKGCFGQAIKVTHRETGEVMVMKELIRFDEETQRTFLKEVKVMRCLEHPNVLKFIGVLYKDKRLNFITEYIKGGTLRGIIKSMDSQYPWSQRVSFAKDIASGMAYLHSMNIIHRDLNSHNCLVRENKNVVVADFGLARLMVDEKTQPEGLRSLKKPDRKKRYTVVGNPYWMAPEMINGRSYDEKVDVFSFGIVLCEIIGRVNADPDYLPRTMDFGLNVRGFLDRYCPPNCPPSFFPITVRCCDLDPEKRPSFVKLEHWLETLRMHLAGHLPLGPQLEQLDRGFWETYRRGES

SMILES	TM Shift LIMK2 (K) [1, 3] [K]	TM Shift LIMK1 (K) [2, 4] [K]	ΔTm at 10 µM [1, 3] [°C]	ΔTm at 10 µM [2, 4] [°C]	also measured
COc1cccc(-c2cc(=O)c3ccccc3o2)c1N [PD98059]	-0.3	-0.8			
C=CC(=O)Nc1ccc2ncnc(Nc3cccc(Br)c3)c2c1 [PD168393]	2.0	0.4			
CCN(CC)CCCCNc1ncc2cc(-c3cc(OC)cc(OC)c3)c(NC(=O)NC(C)(C)C)nc2n1 [PD173074]			1.2	1.1	
O=C(NOCC1CC1)c1ccc(F)c(F)c1Nc1ccc(I)cc1Cl [PD184352 (CI-1040)]			0.9	0.1	
O=C(NOCC(O)CO)c1cc(Br)c(F)c(F)c1Nc1ccc(I)cc1F (stereo not drawn) [PD318088]	2.8	0.6			
CN(c1ccccc1CNc1nc(Nc2ccc3c(c2)CC(=O)N3)ncc1C(F)(F)F)S(C)(=O)=O [PF 431396]	0.2	2.9			
CN(c1ncccc1CNc1nc(Nc2ccc3c(c2)CC(=O)N3)ncc1C(F)(F)F)S(C)(=O)=O [PF-00562271]		1.1			TM Shift LIMK2 (K) [1, 5]: 0.3 K
CN(c1ncccc1CNc1nc(Nc2ccc3c(c2)CC(=O)N3)ncc1C(F)(F)F)S(C)(=O)=O [PF-562271]		-0.5			TM Shift LIMK2 (K) [1, 5]: -0.7 K
CS(=O)(=O)c1cccc(CNc2nc(Nc3ccc4c(c3)CCC(=O)N4)ncc2C(F)(F)F)c1 [PF-573228]	0.7	1.0			
Nc1nccc(-c2c(-c3ccc(F)cc3)ncn2C2CCCCC2)n1 [PF-670462]	-0.2	1.5			
Cc1nc(Nc2n[nH]c3c2CN(C(=O)N[C@H](CN(C)C)c2ccccc2)C3(C)C)c2sccc2n1 [PF-03758309]	-0.4	0.7			
OCCn1cc(-c2cnc3nnn(Cc4ccc5ncccc5c4)c3n2)cn1 [PF-04217903]	-0.1	0.3			
COc1ccc(-c2cc3c(C)nc(N)nc3n([C@H]3CC[C@H](OCCO)CC3)c2=O)cn1 [PF-04691502]	0.6	0.9			
CCc1cncnc1N1CCN(Cc2nc3ccc(C(F)(F)F)cc3[nH]2)CC1 [PF-04708671]		1.6			TM Shift LIMK2 (K) [1, 5]: 1.7 K
CCc1cncnc1N1CCN(Cc2nc3ccc(C(F)(F)F)cc3[nH]2)CC1 [PF-4708671]		0.4			TM Shift LIMK2 (K) [1, 5]: 3.5 K
Nc1ncnc2c1c(COc1cccc(Cl)c1)nn2C1CCOCC1 [PF-4800567]			-0.8	1.3	
CNC(=O)c1ccc(C)c(-n2c(C)cc(OCc3ccc(F)cc3F)c(Br)c2=O)c1 [PH-797804]			0.1	1.3	
Cc1[nH]c(/C=C2\C(=O)Nc3ccc(S(=O)(=O)Cc4c(Cl)cccc4Cl)cc32)c(C)c1C(=O)N1CCC[C@@H]1CN1CCCC1 [PHA-665752]			-0.4	1.3	
CCc1cccc(CC)c1NC(=O)N1Cc2n[nH]c(NC(=O)c3ccc(N4CCN(C)CC4)cc3)c2C1 [PHA-680632]			0.4	5	
O=C1NCCc2[nH]c(-c3ccncc3)cc21 [PHA-767491]	0.4	1.2			
CC(C)CC(=O)Nc1[nH]nc2c1CN(C(=O)C1CCN(C)CC1)C2(C)C [PHA-793887]			4.1	1	
CCCCCCCCCCCCc1ccc(S(=O)(=O)Nc2nncs2)cc1 [PHT-427]	1.6	0.6			
Oc1cccc(-c2nc(N3CCOCC3)c3oc4ncccc4c3n2)c1 [PI-103]			0.3	-1	
Cc1ccc([N+](=O)[O-])cc1S(=O)(=O)N(C)/N=C/c1cnc2ccc(Br)cn12 [PIK-75]	2.4	3.3			
CC(=O)Nc1nc(C)c(-c2ccc(Cl)c(S(=O)(=O)NCCO)c2)s1 [PIK-93]					TM Shift LIMK2 (K) ([1]; 10 µM): 1.7 K; TM Shift LIMK1 (K) [2]: 1.0 K
Cc1ccccc1-n1c(Cn2ncc3c(N)ncnc32)nc2cccc(C)c2c1=O [PIK-293]	0.9	0.6			
CCCS(=O)(=O)Nc1ccc(F)c(C(=O)c2c[nH]c3ncc(Cl)cc23)c1F [PLX-4720]			3.8	2.5	
